Experiment [1] concerns the target T1, Cystathionine gamma-lyase (Homo sapiens, UniProt P32929). The experiment can be described thus: Inhibition of human CSE using L-Cys as the substrate by tandem well based HTS assay.
The target in experiment [2] is T1, Cystathionine gamma-lyase. As to the kind of experiment: Inhibition of human CSE expressed in mouse RAW264.7 cells assessed as reduction in amount of released H2S level at >=200 uM by lead acetate method. It is filed as cell-based. The note with it: dose microM >=200.
The target in experiment [3] is Cystathionine gamma-lyase (Mus musculus) (UniProt Q8VCN5). The experiment can be described thus: Inhibition of CSE in mouse RAW264.7 cells assessed as reduction in amount of released H2S level at >= 200 uM by lead acetate method. It counts as cell-based. The note with it: dose microM >=200.
Experiment [4] concerns the target Cystathionine gamma-lyase (Mus musculus, UniProt Q8VCN5). The experiment can be described thus: Inhibition of CSE in mouse RAW264.7 cells assessed as reduction in endogenous H2S level by AzMC probe based fluorescence assay. It is filed as cell-based.
Experiment [5] has as its target T1, Cystathionine gamma-lyase. As to the kind of experiment: Competitive inhibition of human CSE using varying levels of L-Cys as substrate and fixed PLP levels.
The target in experiment [6] is T1, Cystathionine gamma-lyase. As to the kind of experiment: Binding affinity to human CSE by ITC analysis.
Experiment [7] addresses T1, Cystathionine gamma-lyase. The experiment can be described thus: Non-covalent reversible inhibition of human CSE.
Experiment [8] deals with T1, Cystathionine gamma-lyase. As to the kind of experiment: Inhibition of human CSE using H-Cys as the substrate by tandem well based HTS assay.
Experiment [9] concerns the target T1, Cystathionine gamma-lyase. The experiment can be described thus: Inhibition of human CSE using H-Cys as the substrate by LC/MS/MS-based assay.
Experiment [10] has as its target T1, Cystathionine gamma-lyase. As to the kind of experiment: Inhibition of human CSE using L-Cys as the substrate in presence of 0.01% Triton X-100 by tandem well based HTS assay.
Experiment [11] has as its target T1, Cystathionine gamma-lyase. The experiment can be described thus: Inhibition of human CSE using L-Cys as the substrate in presence of 0.025% Triton X-100 by tandem well based HTS assay.
The nature of experiment [12]: Binding affinity to H2S assessed as absorbing of released H2S up to 100 uM in presence of NaHS as H2S donor. To be noted: dose microM <=100.
Experiment [13] can be described thus: Binding affinity to H2S assessed as absorbing of released H2S at 200 uM in presence of NaHS as H2S donor.
For experiment [14], the species on record is Homo sapiens. As to the kind of experiment: Selectivity index, ratio of IC50 for human CBS to IC50 for human CSE.
The species named for experiment [15] is Homo sapiens. As to the kind of experiment: Selectivity index, ratio of IC50 for human CBS to IC50 for human DDC.

The source made the active and inactive calls. The calls are words filed in the database; no cut-off is given here. Bounds are passed on as bounds.

As usually defined, the IC50 is the midpoint of a concentration-inhibition curve. What is called Ki is the equilibrium dissociation constant of an inhibitor or competing ligand from its target. A high value points to lower affinity. Broadly, the Kd is a measure of binding affinity in units of concentration.

T1 sequence (P32929 whole entry): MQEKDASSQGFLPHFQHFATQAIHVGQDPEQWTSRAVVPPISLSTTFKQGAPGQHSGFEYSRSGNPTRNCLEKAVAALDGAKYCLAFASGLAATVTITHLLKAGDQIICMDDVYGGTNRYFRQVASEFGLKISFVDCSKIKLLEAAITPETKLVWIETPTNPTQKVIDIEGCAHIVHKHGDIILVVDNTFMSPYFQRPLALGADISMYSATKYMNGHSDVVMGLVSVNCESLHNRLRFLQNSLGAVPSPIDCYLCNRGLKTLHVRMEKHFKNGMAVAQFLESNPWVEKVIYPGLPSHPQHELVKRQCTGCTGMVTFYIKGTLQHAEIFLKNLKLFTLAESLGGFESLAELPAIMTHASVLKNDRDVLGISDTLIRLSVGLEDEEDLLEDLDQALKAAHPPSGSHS
Cystathionine gamma-lyase (Mus musculus, UniProt Q8VCN5), sequence (Q8VCN5 whole entry): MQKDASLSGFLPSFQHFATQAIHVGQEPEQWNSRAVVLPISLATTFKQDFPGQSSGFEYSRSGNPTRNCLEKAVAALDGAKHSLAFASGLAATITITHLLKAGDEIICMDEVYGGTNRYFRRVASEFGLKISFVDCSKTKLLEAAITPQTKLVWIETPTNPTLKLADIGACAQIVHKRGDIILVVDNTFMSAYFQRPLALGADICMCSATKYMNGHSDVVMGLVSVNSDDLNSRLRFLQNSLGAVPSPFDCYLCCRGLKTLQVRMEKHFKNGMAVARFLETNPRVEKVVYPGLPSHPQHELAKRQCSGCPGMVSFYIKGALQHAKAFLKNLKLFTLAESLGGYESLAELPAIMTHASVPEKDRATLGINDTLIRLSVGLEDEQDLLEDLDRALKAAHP
Cystathionine gamma-lyase (Mus musculus), sequence (Q8VCN5 whole entry): as above

The molecule `COC(=O)C1=CC(=C(c2ccc(O)c(C(=O)OC)c2)c2ccc(O)c(C(=O)OC)c2)C=CC1=O` gave an IC50 in [1] of more than 200 µM.

Take `O=C(O)c1cc(/N=N/c2ccc(O)c(C(=O)O)c2)ccc1O` [OLSALAZINE]: the half-inhibitory concentration (IC50) in experiment [1] was more than 200 µM.

Take `C#CCC(N)C(=O)O` (racemic): the inhibition result in experiment [2] and in [3] was “Active” in each case. Also, the IC50 in experiment [4] turned out to be 371 µM.

On to `Nc1ccc(Cc2ccc(NC3C(=O)c4ccccc4C(=O)C3Cl)cc2)cc1` (stereo not drawn), for which the IC50 in experiment [1] is less than 50 µM.

Regarding `CC1=CC(=C(c2cc(C)c(O)c(C(=O)O)c2)c2cc(C)c(O)c(C(=O)O)c2)C=C(C(=O)O)C1=O`, the IC50 in [1] came to 59.9 µM.

As to `CN1CCN(C2=C(Cl)C(=O)c3ccccc3C2=O)CC1`, in [1], the IC50 is less than 50 µM.

In turn, `O=C1c2ccccc2C(=O)c2sc(Nc3ccc(Cl)cc3)nc21` gave an IC50 in [1] of less than 50 µM.

As for `O=C1C(Cl)=C(NCCCCCCNC2=C(Cl)C(=O)c3ccccc3C2=O)C(=O)c2ccccc21`, the half-maximal inhibitory concentration (IC50) in [1] was less than 50 µM.

For `NC1=C(Cl)C(=O)c2ncccc2C1=O`, the IC50 in experiment [1] is less than 50 µM.

In turn, `O=C(O)c1ccccc1O` [SALICYLIC ACID] yielded an IC50 in experiment [1] of more than 200 µM.

As for `O=CN/C=C\c1cc(O)ccc1O`, in experiment [1], the IC50 is less than 50 µM.

On to `Cc1nc2c(N)nc(N)nc2nc1O`, for which the IC50 in experiment [1] was less than 50 µM.

In experiment [1], `O=C1C=C/C(=N/C2C(=O)c3ccccc3C(=O)C2Cl)C=C1Cl` (stereo not drawn) returned an IC50 of less than 50 µM.

Regarding `NC1=CC(=O)c2cccnc2C1=O`, the IC50 in experiment [1] was less than 50 µM.

`COc1cccc2c1C(=O)C1=C(C[C@H](CC(=O)O)O[C@H]1C)C2=O` gave a Ki in experiment [5] of 4.9 µM. In addition, the Kd in experiment [6] stood at 3.8 µM. The 50% inhibitory concentration (IC50) in experiment [7] came out at 6.2 µM; in experiment [8] it was 7.4 µM; in [9] it was 13.5 µM; in experiment [1], 6.2 µM. In addition, the inhibition result in experiment [10] and in experiment [11] was “Active” in each case. In experiment [12], the outcome was inactive. Moreover, the Activity in experiment [13] came out at 20%. In addition, the Ratio IC50 in experiment [14] was determined as 161; in experiment [15] it was 32.

On to `O=C1C(Cl)=C(NCCN2CCNCC2)C(=O)c2ccccc21`, for which the IC50 in [1] was less than 50 µM.

`Cc1ccc([S+]([O-])c2ccc([N+](=O)[O-])c3nonc23)cc1` (stereo not drawn) had an IC50 in experiment [1] of less than 50 µM.

`O=[N+]([O-])c1ccc(Sc2cccc[n+]2[O-])c2nonc12` displayed a concentration for half-maximal inhibition (IC50) in [1] of less than 50 µM.

As for `O=C1C(Cl)=C(N2CCN(C3=C(Cl)C(=O)c4ccccc4C3=O)CC2)C(=O)c2ccccc21`, the IC50 in experiment [1] was less than 50 µM.

Turning to `CC1OC2CC(=O)OC2C2=C1C(=O)c1c(O)cccc1C2=O` (stereo not drawn), the IC50 in experiment [1] is less than 50 µM.

In turn, `CC1=C/C(=C(\c2cc(C)c(O)c(C(=O)O)c2)c2c(Cl)cccc2Cl)C=C(C(=O)O)C1=O` showed an IC50 in experiment [1] of 155 µM.

`CCNC1=CC(=O)c2ncccc2C1=O`: the IC50 in experiment [1] was less than 50 µM.

In experiment [1], `O=C(O)C1=C/C(=C(\c2ccccc2)c2cc(C(=O)O)c(O)c3ccccc23)c2ccccc2C1=O` yielded a half-maximal inhibitory concentration (IC50) of more than 200 µM.

Molecule `NC1=C(Br)C(=O)c2ncccc2C1=O` yielded a 50% inhibitory concentration (IC50) in [1] of less than 50 µM.

Turning to `O=[N+]([O-])c1ccc(O)c2ncccc12` [NITROXOLINE], the IC50 in experiment [8] worked out at 10.7 µM; in [9], 6 µM; in [1], 8 µM. For the same molecule, the inhibition result in experiment [10] and in experiment [11] was “Active” in each case. In [12], the outcome was inactive. The Activity in experiment [13] was found to be 35%. Also, the results for the Ratio IC50 in [14] and in [15] were 62 and 12, respectively.

With `Nc1ccc(O)c(C(=O)O)c1` [MESALAMINE], in experiment [1], the 50% inhibitory concentration (IC50) was more than 200 µM.

Turning to `CC1=C/C(=C(\c2cc(C)c(O)c(C(=O)O)c2)c2c(Cl)ccc(S(=O)(=O)O)c2Cl)C=C(C(=O)O)C1=O`, in [1], the IC50 was 143 µM.
